Assay results reported in PMC6025150, “Synthesis, enzyme inhibitory kinetics mechanism and computational study of N-(4-methoxyphenethyl)-N-(substituted)-4-methylbenzenesulfonamides as novel therapeutic agents for Alzheimer’s disease” (PeerJ, 2018).
In brackets after ≈: the same amount, converted by molar mass. Several values for one entry are separate records, joined by “and”; a condition that tells them apart may be missing. Identical values can stand only once. Like-named read-outs stand apart in the source and are kept apart here.

Target: T1, acetylcholinesterase (from human erythrocytes) (Homo sapiens, UniProt P22303)
T1 construct: acetylcholinesterase (from human erythrocytes, purchased from Sigma-Aldrich, Seoul, Korea); purchased Sigma-Aldrich, Seoul, Korea; host or cells: human erythrocytes (natural source)
Assay: biochemical
Set-up: LogIC50 (best-fit value): unit not given here
Conditions: for inhibition (Mean): mean of three; for % inhibition / LogIC50 (best-fit value) / IC50 (best-fit value): IC50 Raw Data sheet; for IC50, single experiment: each of three independent experiments; for LogIC50 (best-fit value) / IC50 (best-fit value): log(inhibitor) vs. response fit, single run; for IC50 (best-fit value): unit not given; for IC50 (Mean): mean of three experiments
Protocol: The inhibitory activities of synthesized compounds were determined spectrophotometrically using acetylthiocholine iodide as substrate by following the method of ([Ellman et al., 1961]). Briefly, The assay solution consisted of 180 µL of 50 mM Tris-HCl buffer, pH 7.7, containing (0.1 M sodium chloride and 0.02 M magnesium chloride) and 20 µL of enzyme (AChE, EC 3.1.1.7), acetylcholinesterase (from human erythrocytes, purchased from Sigma-Aldrich, Seoul, Korea) solution (50 U per well); increasing concentrations of test compounds (10 µL) were added to the assay solution and pre incubated for 30 min at 4 °C. After that 5,5′ Dithiobis (2 nitrobenzoic acid) (0.3 mM, 20 µL) and acetylthiocholine iodide (1.8 mM, 20 µL) were added to the reaction mixture and incubated at 37 °C for 10 min, followed by the measurement of absorbance at 412 nm. For non-enzymatic reaction, the assays were carried out with a blank containing all components except acetylcholinesterase. The assay measurements were measured at 412 nm using a micro plate reader (OPTI Max Tunable; Molecular Devices, Sunnyvale, CA, USA) having a wave-length range from 340–850 nm; for 96 well plates. The reaction rates were compared and percent inhibition was calculated due to the presence of tested inhibitors. […] Each concentration was analyzed in three independent experiments run in triplicate. The IC50 values were calculated by nonlinear regression using GraphPad Prism 5.0.
The % of Inhibition of Acetylcholinesterase was calculated as following: Inhibition%=B−S∕B×100. Here, the B and S are the absorbance’s for the blank and samples.

[1] = Conc: 0.0306373 (unit not given), Raw Data of IC50 sheet
[2] = Conc: 0.0612745 (unit not given), Raw Data of IC50 sheet
[3] = Conc: 0.122549 (unit not given), Raw Data of IC50 sheet
[4] = Conc: 0.245098 (unit not given), Raw Data of IC50 sheet
[5] = Conc: 0.490196 (unit not given), Raw Data of IC50 sheet
[6] = Conc: 0.980392 (unit not given), Raw Data of IC50 sheet
[7] = Conc: 1.96078 (unit not given), Raw Data of IC50 sheet
[8] = Conc: 3.92157 (unit not given), Raw Data of IC50 sheet
[9] = Concentration 0.0306373 (unit not given)
[10] = Concentration 0.0612745 (unit not given)
[11] = Concentration 0.122549 (unit not given)
[12] = Concentration 0.245098 (unit not given)
[13] = Concentration 0.490196 (unit not given)
[14] = Concentration 0.980392 (unit not given)
[15] = Concentration 1.96078 (unit not given)
[16] = Concentration 3.92157 (unit not given)
[17] = from human erythrocytes, mean ± SEM, read-out: Acetylcholinesterase IC50 ± SEM
[18] = mean converted to uM, Raw Data of IC50 sheet, read-out: IC50

T1 sequence (P22303 32-617 isoform P22303-2 limits assumed): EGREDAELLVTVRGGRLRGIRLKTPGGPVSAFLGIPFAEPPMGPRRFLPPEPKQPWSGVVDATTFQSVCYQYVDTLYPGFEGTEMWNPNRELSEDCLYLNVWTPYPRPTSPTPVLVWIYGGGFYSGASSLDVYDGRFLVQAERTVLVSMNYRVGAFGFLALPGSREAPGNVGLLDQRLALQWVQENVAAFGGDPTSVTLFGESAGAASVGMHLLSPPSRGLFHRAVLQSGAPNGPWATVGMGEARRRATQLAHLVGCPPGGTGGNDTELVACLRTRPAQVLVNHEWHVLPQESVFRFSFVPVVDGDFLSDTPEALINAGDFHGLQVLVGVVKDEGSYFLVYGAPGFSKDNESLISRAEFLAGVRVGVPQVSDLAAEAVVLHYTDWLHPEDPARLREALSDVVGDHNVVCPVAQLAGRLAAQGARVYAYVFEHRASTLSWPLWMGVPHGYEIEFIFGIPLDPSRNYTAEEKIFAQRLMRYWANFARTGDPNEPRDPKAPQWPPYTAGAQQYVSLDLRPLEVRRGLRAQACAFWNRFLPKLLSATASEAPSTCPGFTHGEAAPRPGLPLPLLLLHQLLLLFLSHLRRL

Compound	inhibition, single experiment [1]	inhibition (Mean) [1]	inhibition, single experiment [2]	inhibition (Mean) [2]	inhibition, single experiment [3]	inhibition (Mean) [3]	inhibition, single experiment [4]	inhibition (Mean) [4]	inhibition, single experiment [5]	inhibition (Mean) [5]	inhibition, single experiment [6]	inhibition (Mean) [6]	inhibition, single experiment [7]	inhibition (Mean) [7]	inhibition, single experiment [8]	inhibition (Mean) [8]	% inhibition [9]	% inhibition [10]	% inhibition [11]	% inhibition [12]	also measured
COc1ccc(CCN(Cc2cccc(C)c2)S(=O)(=O)c2ccc(C)cc2)cc1 [Compound 5i, N-(4-Methoxyphenethyl)-4-methyl-N-(3-methylbenzyl) benzensulfonamide]	38.1497 and 38.771	38.1601	45.4473 and 46.02	45.6873	56.7855 and 56.3378	56.078	70.5479 and 70.7214	71.0257	74.2589 and 75.8888	75.1591	78.1111 and 76.8876	77.3479	87.2875 and 87.9775	87.5273	97.778 and 97.9734	97.9676	37.5596%	45.5947%	55.1106%	71.8079%	% inhibition [13]: 75.3297%; % inhibition [14]: 77.0449%; % inhibition [15]: 87.3169%; % inhibition [16]: 98.1514%; IC50, single experiment (Raw Data of IC50 sheet): 0.1949 µg/mL and 0.1984 µg/mL; IC50 [17]: 0.47 ± 0.0109 µM; LogIC50 (best-fit value): -0.7362; IC50 (best-fit value): 0.1836; IC50 [18]: 0.47 µM; IC50 (Mean) (Raw Data of IC50 sheet): 0.1923 µg/mL (≈ 0.47 µM)
COc1ccc(CCN(Cc2ccc(C)cc2)S(=O)(=O)c2ccc(C)cc2)cc1 [Compound 5j, N-(4-Methoxyphenethyl)-4-methyl-N-(4-methylbenzyl) benzensulfonamide]	17.2222 and 17.1022	17.3151	31.4199 and 30.0777	30.8306	36.8749 and 37.0114	36.7468	48.1258 and 49.804	49.2304	54.7822 and 55.2287	55.0656	59.1009 and 58.8888	59.2947	65.9226 and 65.7652	65.7178	90.0712 and 89.7746	89.7021	17.621%	30.9943%	36.3541%	49.7613%	% inhibition [13]: 55.1859%; % inhibition [14]: 59.8945%; % inhibition [15]: 65.4657%; % inhibition [16]: 89.2606%; IC50, single experiment (Raw Data of IC50 sheet): 0.5355 µg/mL and 0.4119 µg/mL; IC50 [17]: 1.11 ± 0.0999 µM; LogIC50 (best-fit value): -0.3835; IC50 (best-fit value): 0.4136; IC50 [18]: 1.11 µM; IC50 (Mean) (Raw Data of IC50 sheet): 0.4537 µg/mL (≈ 1.11 µM)
